Results reported in patent US20170165286A1, “COMPOSITIONS AND METHODS FOR TREATING DIABETES AND LIVER DISEASES” (Cempra Pharmaceuticals, Inc., priority 2014, published 2017).

Test system: STAM mice
Test: NASH-HCC (STAM) model: body weight, liver weight, macroscopic liver appearance
Type: in vivo
Conditions: for Liver Weight / Liver-to-body Weight Ratio: 5-9 wks
Experimental: NASH-HCC (STAM™) Model. C57BL/6 (15-day-pregnant female) mice are obtained from Charles River Laboratories Japan (Kanagawa, Japan). Male pups are selected for the study. NASH is induced in male mice by a single subcutaneous injection of 200 μg streptozotocin (STZ, Sigma-Aldrich, USA) solution 2 days after birth, followed by feeding a HFD (57 kcal % fat, cat#: HFD32, CLEA Japan, Japan) beginning at 4 weeks of age. At 5 weeks of age, mice are divided into a control group and one or more treated group (generally 8 mice per group). Animals are sacrificed at 9 weeks of age, and biochemical, histological, and gene expression analyses are performed.
All animals used in the study are housed and cared for in accordance with local regulations. Test animals are maintained in an SPF facility under controlled conditions of temperature (23±2° C.), humidity (45±10%), lighting (12-hour artificial light and dark cycles; light from 8:00 to 20:00) and air exchange. A high pressure (20±4 Pa) is maintained in the experimental room. Test animals are housed in polycarbonate cages KN-600 (Natsume Seisakusho, Japan) with a maximum of 4 mice per cage. Sterilized PULMASμ (Material Research Center, Japan) are used for bedding and replaced once a week. Sterilized solid HFD is provided ad libitum, being placed in the metal lid on top of the cage. Pure water is provided ad libitum from a water bottle equipped with a rubber stopper and a sipper tube. Water bottles are replaced once a week, cleaned and sterilized in autoclave and reused.
Generally, elevated NAFLD activity score (NAS)≧5, steatosis, and elevated ALT is evident by week 6, NASH is evident by week 7, perisinusoidal fibrosis is evident by week 9, nodules are evident by week 12, and HCC is evident by week 16. It is to be understood herein that perisinusoidal fibrosis in mice is the model for NASH in humans (Fujii et al., Med Mol Morphol 46: 141-152 (2013)).
During weeks 5-9 (starting at day 35±2), test compound is administered (generally orally) at various doses diluted to 10 mL/kg and according to various dosing protocols to treatment groups (8 mice each) while a second group (8 mice) is administered vehicle only. Animals are sacrificed at 9 weeks.
Illustrative dose response test groups. Group 1-Normal. Eight normal mice are fed with a normal diet ad libitum without any treatment until 9 weeks of age. Group 2-Vehicle. Eight NASH mice are orally administered vehicle (0.5% w/v methylcellulose+0.2% Tween®80) in a volume of 10 mL/kg twice daily from 5 to 9 week of age. Group 3-solithromycin 5 mg/kg. Eight NASH mice are orally administered vehicle supplemented with solithromycin at a dose of 5 mg/kg in the morning and the vehicle in the evening (5 mg/kg/day) from 5 to 9 weeks of age. Group 4-solithromycin 10 mg/kg. Eight NASH mice are orally administered vehicle supplemented with solithromycin at a dose of 10 mg/kg twice daily (20 mg/kg/day) from 5 to 9 weeks of age. Group 5-solithromycin 25 mg/kg. Eight NASH mice are orally administered vehicle supplemented with solithromycin at a dose of 25 mg/kg twice daily (50 mg/kg/day) from 5 to 9 weeks of age. Group 6-solithromycin 50 mg/kg. Eight NASH mice are orally administered vehicle supplemented with solithromycin at a dose of 50 mg/kg once daily (50 mg/kg/day) from 5 to 9 weeks of age.

[1] = 5 mg/kg q.d. oral, listed as Solithromycin, 5 mg/kg
[2] = 10 mg/kg b.i.d. oral, listed as Solithromycin, 10 mg/kg
[3] = 25 mg/kg b.i.d. oral, listed as Solithromycin, 25 mg/kg

SMILES: CC[C@H]1OC(=O)[C@@](C)(F)C(=O)[C@H](C)[C@@H](O[C@@H]2O[C@H](C)C[C@H](N(C)C)[C@H]2O)[C@](C)(OC)C[C@@H](C)C(=O)[C@H](C)[C@H]2N(CCCCn3cc(-c4cccc(N)c4)nn3)C(=O)O[C@]12C [solithromycin]
- Liver Weight (5 mg/kg q.d. oral, 5 mg/kg): no statistically significant difference
- Liver-to-body Weight Ratio (5 mg/kg q.d. oral, 5 mg/kg): no statistically significant differences
- Liver Weight [1]: 1335 ± 185 mg
- Liver-to-body Weight Ratio [1]: 7.0 ± 0.8%
- Liver Weight (10 mg/kg b.i.d. oral, 10 mg/kg): significant reductions
- Liver-to-body Weight Ratio (10 mg/kg b.i.d. oral, 10 mg/kg): no statistically significant differences
- Liver Weight [2]: 1187 ± 134 mg
- Liver-to-body Weight Ratio [2]: 6.7 ± 0.8%
- Liver Weight (25 mg/kg b.i.d. oral, 25 mg/kg): significant reductions
- Liver-to-body Weight Ratio (25 mg/kg b.i.d. oral, 25 mg/kg): significant decrease
- Liver Weight [3]: 1087 ± 97 mg
- Liver-to-body Weight Ratio [3]: 5.9 ± 0.7 %
- Liver Weight (50 mg/kg q.d. oral): 1242 ± 141 mg
- Liver-to-body Weight Ratio (50 mg/kg q.d. oral): 6.0 ± 0.7 %
- Mean body weight on the day of sacrifice compared to vehicle group (Group 4 (10 mg/kg b.i.d.)): significant decrease
- Mean body weight on the day of sacrifice compared to vehicle group (Groups 3, 5, 6): no significant differences
- Macroscopic liver appearance (coloration) (as a function of increasing dose): substantially less yellow in color
